{"source": "patent US7858295B2", "about": "“Methods for prolonging survival of platelets using UDP-galactose” (Velico Medical, Inc., priority 2002, dated 2010)", "key": {"THP-1 cells": {"tested_on": "THP-1 cells", "assay": "In vitro phagocytic assay: ingestion of CM-Orange-labeled chilled or room temperature human platelets by THP-1 phagocytes (flow cytometry)", "type": "cell-based", "conditions": "for % inhibition phagocytosis / inhibitory effect on chilled platelet phagocytosis (in words): chilled platelets; for inhibitory effect on chilled platelet phagocytosis (in words): various concentrations; for inhibitory effect on RT platelet phagocytosis (in words): room temperature platelets", "procedure": "CR3 expression was monitored by flow cytometry using a PE-conjugated anti-human CD11b/Mac-1 mAb. Undifferentiated or differentiated THP-1 cells (2×10^6/ml) were plated onto 24-well plates and allowed to adhere for 45 minutes at 37° C. The adherent undifferentiated or differentiated macrophages were activated by the addition of 15 ng/ml PMA for 15 min. CM-range-labeled, chilled or room temperature platelets (10^7/well), previously subjected to different treatments were added to the undifferentiated or differentiated phagocytes in Ca^2+- and Mg^2+-containing HBSS and incubated for 30 min at 37° C. Following the incubation period, the phagocyte monolayer was washed with HBSS for 3 times, and adherent platelets were removed by treatment with 0.05% trypsin/0.53 mM EDTA in HBSS at 37° C. for 5 min followed by 5 mM EDTA at 4° C. to detach the macrophages for flow cytometric analysis of adhesion or ingestion of platelets (Brown et al., 2000). […] CM-Orange-labeled platelets incubated with macrophages were resolved from the phagocytes according to their forward and side scatter properties. The macrophages were gated, 10,000 events acquired for each sample, and data analyzed with CELLQuest software (Becton Dickenson).\nTo analyze the effects of monosaccharides on platelet phagocytosis, phagocytes (differentiated monocytic cell line THP-1) were incubated in monosaccharide solutions at various concentrations, and the chilled or room temperature platelets were added. Values in the Figures are means±SD of 3-5 experiments comparing percentages of orange-positive monocytes containing ingested platelets incubated with RT or chilled platelets)."}, "human platelets": {"tested_on": "human platelets", "assay": "FITC-lectin (WGA, S-WGA, RCA I) binding to chilled or room temperature platelets by flow cytometry", "type": "cell-based", "conditions": "alone", "quoted_text": "We then investigated whether wheat germ agglutinin (WGA), a lectin with specificity towards the terminal sugar (GlcNAc), binds more effectively to chilled platelets than to room temperature platelets. Washed, chilled or room temperature platelets were incubated with 2 μg/ml of FITC coupled WGA or FITC coupled succinyl-WGA for 30 min at room temperature and analyzed by flow cytometry. FIGS. 9A and 9B show the dot plots after incubation with FITC-WGA of room temperature (RT) or chilled (Cold) human platelets.\nTo analyze whether removal of GlcNAc residues reduces the binding of WGA to the platelet surface, chilled and room temperature washed human platelets were treated with 100 U/ml β-Hex for 30 min at 37° C."}}, "data": [{"smiles": "O=C[C@H](O)[C@@H](O)[C@@H](O)[C@H](O)CO", "note": "[D-(+)-galactose]", "values": [{"measurement": "% inhibition phagocytosis", "setting": "THP-1 cells; phagocytes incubated with 100 mM monosaccharide", "result": "did not significantly inhibit"}]}, {"smiles": "O=C[C@@H](O)[C@@H](O)[C@H](O)[C@H](O)CO", "note": "[D-(+)-mannose]", "values": [{"measurement": "inhibitory effect on chilled platelet phagocytosis (in words)", "setting": "THP-1 cells", "result": "no inhibitory effect"}, {"measurement": "inhibitory effect on RT platelet phagocytosis (in words)", "setting": "THP-1 cells", "result": "no inhibitory effect"}]}, {"smiles": "CC(=O)N[C@H]1C(O)O[C@H](CO)[C@@H](O)[C@@H]1O", "note": "(stereo partly drawn) [GlcNac, N-acetyl-D-glucosamine]", "values": [{"measurement": "inhibitory effect on chilled platelet phagocytosis (in words)", "setting": "THP-1 cells", "result": "significantly inhibited"}]}, {"smiles": "CO[C@H]1O[C@H](CO)[C@@H](O)[C@H](O)[C@H]1O", "note": "[Methyl-α-D-glucopyranoside]", "values": [{"measurement": "inhibitory effect on chilled platelet phagocytosis (in words)", "setting": "THP-1 cells", "result": "did not have an inhibitory effect"}]}, {"smiles": "CO[C@H]1O[C@H](CO)[C@@H](O)[C@H](O)[C@@H]1O", "note": "[Methyl-α-D-mannopyranoside]", "values": [{"measurement": "inhibitory effect on chilled platelet phagocytosis (in words)", "setting": "THP-1 cells", "result": "no inhibitory effect"}, {"measurement": "inhibitory effect on RT platelet phagocytosis (in words)", "setting": "THP-1 cells", "result": "no inhibitory effect"}]}, {"smiles": "COC1OC(CO)C(O)C(O)C1O", "note": "[Methyl-β-D-gludopyranoside]", "values": [{"measurement": "inhibitory effect on chilled platelet phagocytosis (in words)", "setting": "THP-1 cells", "result": "dose-dependent manner"}]}, {"smiles": "CO[C@@H]1O[C@H](CO)[C@@H](O)[C@H](O)[C@@H]1O", "note": "[Methyl-β-D-mannopyranoside]", "values": [{"measurement": "inhibitory effect on chilled platelet phagocytosis (in words)", "setting": "THP-1 cells", "result": "no inhibitory effect"}, {"measurement": "inhibitory effect on RT platelet phagocytosis (in words)", "setting": "THP-1 cells", "result": "no inhibitory effect"}]}, {"smiles": "O=c1ccn([C@@H]2O[C@H](COP(=O)(O)OP(=O)(O)O)[C@@H](O)[C@H]2O)c(=O)[nH]1", "note": "[UDP]", "values": [{"measurement": "effect on S-WGA or RCA I binding to chilled or room temperature human platelets", "setting": "human platelets", "result": "no effect"}]}, {"smiles": "CC(=O)N[C@@H]1[C@@H](O)[C@H](O)[C@@H](CO)O[C@H]1O", "note": "[β-GlcNac]", "values": [{"measurement": "% inhibition phagocytosis", "setting": "THP-1 cells; 0.01 mM (10 μM) monosaccharide, listed as β-anomer of GlcNAc", "result": 80, "unit": "%"}, {"measurement": "inhibitory effect on chilled platelet phagocytosis (in words)", "setting": "THP-1 cells", "result": "strongly inhibited"}]}]}
